Literature values as cited in patent US20090011476A1, “GENE CLUSTER AND METHOD FOR THE BIOSYNTHESIS OF TERREQUINONE A” (Wisconsin Alumni Research Foundation, priority 2005, published 2009).

Tested on: tumor cell lines
Details: literature statement, values not given

Substance: terrequinone A
- inhibitory properties on tumor cell lines: inhibitory properties
